Reference: PubChem BioAssay AID1013 (Columbia University Molecular Screening Center, 2008)
Activity calls are given as the source filed them. How the calls were made is not given here.

Columns and labels:
[1] = tested on: TNFa-stimulated cells, VCAM1 expression imaging; test: inhibitors of TNFa-induced VCAM1 expression, confirmation, imaging, TNFa stimulus, retest and dose response (AID 1013);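 on cell count: compound on cells 1 h before TNFa then 24 h more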
[2] = as above; details: TNFa-stimulated cells, VCAM1 expression imaging; for cell count: at 10 µM, stronger effect = lower value; for inhibition: at 2 µM, stronger effect = higher value

| SMILES | IC50 [1] | cell count [2] [%] | inhibition [2] |
| --- | --- | --- | --- |
| COc1ccc(S(=O)(=O)Nc2cc3c(C(C)=O)c(C)oc3c3ccccc23)cc1 | > 10 µM (inactive) | 113 |  |
| COc1ccc(NS(=O)(=O)c2cc(C)ccc2NC(=O)c2cc(C)oc2C)cc1 | 3.16 µM | 71 |  |
| O=S(=O)(C/C(=C/CO)S(=O)(=O)c1ccccc1)c1ccccc1 | 1.63 µM | 9.93 |  |
| Cc1ccccc1NC1=C/C(=N\S(=O)(=O)c2cccs2)c2ccccc2C1=O | > 10 µM (inactive) | 99.8 |  |
| CCCCCc1ccc(-c2ccc(=O)[nH]n2)cc1 | 2.49 µM | 91 |  |
| O=[N+]([O-])c1ccc(O)c(/C=N/Nc2ccc(Cl)nn2)c1 | > 10 µM (inactive) | 106 |  |
| Cc1ccc(O)c(NC(=O)C2CC(c3c(F)cccc3Cl)=NO2)c1 (stereo unspecified) | > 10 µM (inactive) | 105 |  |
| COc1cc(C(=O)N2CCN(c3cc(Cl)ccc3Cl)CC2)cc(OC)c1OC | > 10 µM (inactive) | 82.9 |  |
| O=C(c1ccc([N+](=O)[O-])cc1)N(Cc1ccc(Cl)cc1)N1C(=O)CCCC1=O | > 10 µM (inactive) | 91.5 |  |
| CCc1ccc(C(=O)/C=C/c2ccc([N+](=O)[O-])o2)cc1 | > 10 µM (inactive) | 94.9 |  |
| CCN(CC)c1ccc2cc(-c3nc4ccccc4n3C)c(=O)oc2c1 | > 10 µM (inactive) | 106 |  |
| CCOc1ccc(C2=Nn3c(nnc3-c3ccccc3OC)SC2)cc1 | < 0.1 µM | 32.1 |  |
| Cc1cc(NC(=O)CSc2nc(-c3ccco3)cc(C(F)(F)F)n2)no1 | > 10 µM (inactive) | 94.3 |  |
| O=C(Nc1nccs1)c1cccc(N2C(=O)c3cccc4c([N+](=O)[O-])ccc(c34)C2=O)c1 | > 10 µM (inactive) | 102 |  |
| COCCOC(=O)c1[nH]c2c(c1C)C(=O)CC(c1ccccc1)C2 (stereo unspecified) | > 10 µM (inactive) | 63 |  |
| CSc1nc(N(C)NC(=O)c2cccc(C)c2)c2ccccc2n1 | 0.415 µM | 39.5 |  |
| O=C(N/N=C/C=C/c1ccccc1)c1n[nH]c2c1CCC2 | > 10 µM (inactive) | 103 |  |
| O=C(Nc1ccccc1)c1nnsc1S(=O)c1ccc(Cl)cc1 (stereo unspecified) | > 10 µM (inactive) | 95.6 |  |
| O=C1C(=O)c2ccccc2-c2ccccc21 | 3 µM | 44.1 |  |
| Cc1ccc(-c2nc(NC(=O)c3nn(C)cc3[N+](=O)[O-])sc2C)cc1C | > 10 µM (inactive) | 94.9 |  |
| C=CCSc1nc2ccccc2n1C(=O)/C=C/c1cc(OC)c(OC)c(OC)c1 | > 10 µM (inactive) | 106 |  |
| CC1CCC/C=C/C2CC(O)CC2C(O)/C=C/C(=O)O1 (stereo unspecified) | 0.112 µM | 19.2 |  |
| COc1ccc(OC)c(NS(=O)(=O)c2ccc(N3CCCC3=O)cc2)c1 | 2.93 µM | 43.7 |  |
| CCCOC(=O)c1[nH]c2c(c1C)C(=O)CC(c1cccs1)C2 (stereo unspecified) | > 10 µM (inactive) | 89 |  |

| SMILES | IC50 [1] | cell count [2] [%] | inhibition [2] |
| --- | --- | --- | --- |
| Cn1cc(/C=N/n2cnc3scc(-c4ccc(Cl)cc4)c3c2=O)c2ccccc21 | > 10 µM (inactive) | 88.1 |  |
| COc1ccc(CS(=O)(=O)/C(Cl)=C(/Cl)C(=O)Nc2ccc(OC)nc2)cc1 | 2 µM | 2.22 |  |
| Cc1ccc(C(=O)OCn2ncc(Cl)c(Cl)c2=O)cc1 | 2.31 µM |  |  |
| CC(=O)c1cccc(NC(=O)c2cc(-c3ccc(F)cc3)on2)c1 |  |  | -10.4% (inactive) |
| COc1ccc(Nc2nc(N3CCCC3)nc3ccccc23)c(OC)c1 |  |  | 12.2% (inactive) |
| C=CCNC(=O)c1nn2cccnc2c1Cl |  |  | 3.3% (inactive) |
| S=c1[nH]nc(COc2ccc3c(c2)OCO3)n1-c1ccccc1 |  |  | 1% (inactive) |
| CCN1CCC2(CC1)C(C#N)=C(N)Oc1c2sc2nc(C)cc(C)c12 |  |  | -4.5% (inactive) |
| CCOC(=O)Cc1csc(SCC(=O)/C(C#N)=C(\C)N)n1 |  |  | 3.4% (inactive) |
| COc1ccc(Cl)c(NC(=O)Nc2c(C)n(-c3ccccc3)c(=O)n2C)c1 |  |  | -17.4% (inactive) |
| CCOC(=O)Cc1csc(NC(=O)COc2ccc(N(C)S(=O)(=O)c3ccc(C)cc3)cc2)n1 |  |  | -1.3% (inactive) |
| O=C1CC(c2ccccc2)Cc2nc3ncnn3cc21 (stereo unspecified) |  |  | -11.3% (inactive) |
| O=C(c1ccc(Cl)cc1)N1CCCOC1 |  |  | -7.1% (inactive) |
| O=C(NCc1ccco1)c1ccc(CS(=O)(=O)Cc2ccc(Cl)cc2)o1 |  |  | -2.1% (inactive) |
| COC(=O)Sc1nc(N2CCOCC2)c2c(c1C#N)CC(C)(C)OC2 |  |  | -5.9% (inactive) |
| Cc1cc(C)n(C(=O)c2ccc(NC(=O)C3COc4ccccc4O3)cc2)n1 (stereo unspecified) |  |  | 3.2% (inactive) |
| CCCn1nc([N+](=O)[O-])c(C(C#N)c2nc3ccccc3s2)c(Cl)c1=O (stereo unspecified) |  |  | 18.2% (inactive) |
| C=CCn1c(SCC(=O)Nc2ccc(C(=O)OCC)cc2)nnc1-c1sc(N)nc1C |  |  | 9.5% (inactive) |
| CC1(C)Cc2c(oc3ncn4ncnc4c23)CO1 |  |  | -8% (inactive) |
| O=C(Oc1csc(=S)n1C(=O)c1ccccc1)c1ccccc1 |  |  | 4% (inactive) |
| COC(=O)c1sccc1NC(=O)c1ccc(Br)s1 |  |  | 4% (inactive) |
| O=C(CS(=O)c1ccc(C(F)(F)F)cc1[N+](=O)[O-])Oc1ccccc1 (stereo unspecified) |  | 109 | 56.9% (inactive) |
| CC1=NNC(=O)/C1=C\c1cn(-c2ccccc2)nc1-c1ccc(Cl)cc1 |  |  | -15.6% (inactive) |
| N/C(Cc1cccs1)=N\OC(=O)COc1ccc(Br)cc1Cl |  |  | 8.2% (inactive) |

| SMILES | IC50 [1] | cell count [2] [%] | inhibition [2] |
| --- | --- | --- | --- |
| CCOc1cc(NC(=O)c2ccco2)c(OCC)cc1NC(=O)CCC(=O)NCc1cccnc1 |  |  | 3.7% (inactive) |
| COC(=O)c1ccccc1NC(NC(=O)c1ccco1)C(=O)c1ccc(C)cc1 (stereo unspecified) |  |  | -5.6% (inactive) |
| CC1(C)OC(=O)C(=NNc2ccc(O)cc2)C(=O)O1 |  |  | -6.2% (inactive) |
| CCOC(=O)c1cnc(-n2nc(C)cc2C)nc1NCc1ccccc1 |  |  | 7.9% (inactive) |
| CC1CCCN(c2nc3ccsc3c(=O)s2)C1 (stereo unspecified) |  |  | -1.5% (inactive) |
| COc1cc(NC(=O)c2ccc(COCC(F)(F)F)o2)cc(OC)c1OC |  |  | 20.7% (inactive) |
| CCCc1cc(=O)[nH]c(SCC(=O)Nc2nonc2N)n1 |  |  | 9.8% (inactive) |
| COCCCNC(=O)c1cn(C)c(=O)c2cc(OC)c(OC)cc12 |  |  | 4.1% (inactive) |
| COc1ccc2[nH]c(=O)c(CN(C(=O)c3ccncc3)C(C)C)cc2c1 |  |  | -5.2% (inactive) |
| O=C(N/N=C/c1ccncc1)c1ccccc1 |  |  | 5.8% (inactive) |
| Cc1ccc(-c2nn(C(C)(C)C)c3ncnc(N)c23)cc1 |  |  | -0.9% (inactive) |
| COc1cccc(/C=N/Nc2nc(Nc3ccccc3)nc(-n3nc(C)cc3C)n2)c1O |  |  | -11.8% (inactive) |
| Cc1cc(NC(=O)C2C3C=CC(C3)C2C(=O)O)no1 (stereo unspecified) |  |  | -1.8% (inactive) |
| C/C(=N\Nc1nc2c(s1)CCCC2)c1ccccc1 |  |  | 3.8% (inactive) |
| COC(=O)C1C(=O)C2=C(CC1C)NC(=O)CC2c1cccc(C)c1 (stereo unspecified) |  |  | -3.9% (inactive) |
| CN=c1sc2ccccc2n1CC(O)COc1ccccc1 (stereo unspecified) |  |  | -13.2% (inactive) |
| O=S(=O)(c1cccc(-n2cnnn2)c1)N1CCOCC1 |  |  | -4.6% (inactive) |
| CSC1=NCCN1C(=O)Cc1ccc(Cl)cc1 |  |  | -11.8% (inactive) |
| CCCCCCCCCCn1c2c(c(=N)c3c1CCC3)CCC2 | 0.55 µM |  |  |
| O=C(O)C1CC=CCC1C(=O)N1CCCC1 (stereo unspecified) |  |  | -1.4% (inactive) |
| Cc1ccc(S(=O)(=O)Cn2nnnc2C(C(C)C)N2CCN(c3nc4ccccc4s3)CC2)cc1 (stereo unspecified) |  |  | -0.6% (inactive) |
| Cc1nn(-c2cc(C)c3ccccc3n2)c2c1C1C(C2)C1(C)C (stereo unspecified) |  |  | -11.4% (inactive) |
| Nc1sccc1C(=O)c1ccc(Cl)cc1 |  |  | -3.9% (inactive) |
| COc1ccc(/C=N/NC(=O)c2ccccc2Cl)cc1CSc1nc2ccccc2s1 |  |  | 13.7% (inactive) |

| SMILES | IC50 [1] | cell count [2] [%] | inhibition [2] |
| --- | --- | --- | --- |
| COc1cc(CC(=O)Nc2ncc(C)s2)cc(OC)c1OC |  |  | -6.6% (inactive) |
| N#Cc1cc2c(nc1SCC(=O)N1CCCCC1)CCCC2 |  |  | -5.8% (inactive) |
| Cc1ccc(NC(=O)Cn2nnc(-c3ccccc3NC(=O)c3cccs3)n2)cc1 |  |  | 9.2% (inactive) |
| COc1ccc(-c2c/c(=N\c3nc(-c4ccccc4)c(C)s3)c3ccccc3o2)cc1O |  | 98 | 34.3% (inactive) |
| COC(=O)c1ccc(-n2nnnc2SCC(=O)N2CCCCC2)cc1 |  |  | 0.2% (inactive) |
| CCOC(=O)c1ccc(-n2c(=S)sc3c(=O)[nH]c(C)nc32)cc1 |  |  | -10.7% (inactive) |
| CCn1c(SCC(=O)NC(C)c2ccccc2)nc2ccccc21 (stereo unspecified) |  |  | -13.3% (inactive) |
| O=C(Nc1ccccc1)c1nnsc1S(=O)(=O)c1ccc(Cl)cc1 |  |  | 20.4% (inactive) |
| O=C(Oc1ccc2ccc(=O)oc2c1)N1CCOCC1 |  |  | 1.4% (inactive) |
| Cc1cccc(C(=O)Oc2ccccc2C2C[C@]3(C)CC(=O)NC3N2C(=O)c2cccc(C)c2)c1 (stereo partly specified) |  |  | -2.5% (inactive) |
| CNC(=O)CN(c1ccc(OC)cc1)S(=O)(=O)c1ccc(F)cc1 |  |  | 6.8% (inactive) |
| O=[N+]([O-])c1ccc(/C=N/n2c(COc3ccccc3)n[nH]c2=S)cc1 |  |  | -9.2% (inactive) |
| Clc1ccc(C2=Nn3c(nnc3-c3cccnc3)SC2)s1 |  |  | 13% (inactive) |
| COc1ccc(CCN(Cc2cc3cccc(C)c3[nH]c2=O)C(=O)N2CCCC2)cc1OC |  |  | 5.6% (inactive) |
| FC(F)(F)c1cc(-c2ccc3c(c2)OCO3)nc(NCc2ccco2)n1 |  |  | 16.2% (inactive) |
| CCCc1[nH]nc2c1C(c1cccnc1)C(C#N)=C(N)O2 (stereo unspecified) |  |  | -7.9% (inactive) |
| Cc1cnc(NC(=O)C2CCCC2)s1 |  |  | 14.1% (inactive) |
| Cc1cc(NC(=O)NC(=O)c2cccc(OC(F)(F)C(F)F)c2)n[nH]1 |  |  | 3.8% (inactive) |
| CCn1c(CN2CCN(c3ccc(Cl)cc3)CC2)nc2ccccc21 |  |  | 23.2% (inactive) |
| O=C(CCCCCN1C(=O)c2ccccc2C1=O)Nc1nccs1 |  |  | -4.8% (inactive) |
| COc1ccc(-c2cc(C(=O)Nc3cc(C)n(Cc4ccc(Cl)cc4)n3)no2)cc1OC |  |  | 11.7% (inactive) |
